The values below come from US20060210614A1, “Method of treatment of a metabolic disease using intranasal administration of exendin peptide” (Nastech Pharmaceutical Company Inc., priority 2003, published 2006).

Read-outs that look alike come from different tables or passages of the source.

For data set [1], the system named is normal, human-derived tracheal/bronchial epithelial cells (EpiAirway™ Tissue Model). The conditions noted are these: exenatide formulation containing the excipient; LDH and MTT. How it is done: The amount of cell death was assayed by measuring the loss of lactate dehydrogenase (LDH) from the cells using a CytoTox 96 Cytoxicity Assay Kit (Promega Corp., Madison, Wis.). Fresh, cell-free culture medium was used as a blank. 50 μl harvested media (stored at 4° C.) was loaded in a 96-well plate. Substrate Solution (50 μl) was added to each well and the plates were incubated for thirty (30) minutes at ambient temperature in the dark. Following incubation, 50 μl of Stop Solution was added to each well and the reaction was monitored at A490 using an optical density plate reader. Media alone applied to the apical side served as a negative control while triton X served as the positive control for the LDH assay.
The optical density of the samples was measured at A550 on an optical density plate reader (Molecular Devices, Palo Alto, Calif.). Media alone applied to the apical side served as a […] for the MTT assay.
A second round of studies, series B, systematically screened several excipients for their potential to enhance exenatide permeation to a greater degree than the Me-β-CD, DDPC, EDTA, and gelatin combinations. […] As with series A formulations, each formulation was evaluated for exenatide permeation, ability to reduce TER while not adversely affecting cell viability, and formulation physical stability.

The nature of data set [2]: Physical stability (clarity, absorbance at 630 nm) after storage at 5° C. How it is done:
In vitro optimization of the exenatide formulation included a preservatives screen. Physical stability after storage at 5° C. was measured for all formulations tested in vitro. Exenatide formulations were placed in 1 cc glass vials and closed with trifoil lined caps and stored at 5° C. for at least two weeks. Physical stability was monitored by measuring clarity. Clarity of a formulation was determined by measuring absorbance at 630 nm, using the μQuant optical density plate reader for each formulation at days 0, 7, and 14. A 200 μL volume from each vial was placed in a 96-well plate and read against a background of water.
Varying concentrations of sodium benzoate (NaBenz) and benzalkonium chloride (BAK), were screened for their effect on physical stability of the three formulations used in in vivo studies. Sodium benzoate was added at […], while BAK was tested at 0.2, 1.0, 2.0, and 4.0 mg/mL. To prepare the samples, varying amounts of stock solutions of the two preservatives were added to the three prepared formulations dosed in the PK study. […] The resulting formulations were stored at 5° C. for 5.5 weeks. Physical stability was monitored by measuring the absorbance of the solution at 630 nm.
Sodium benzoate was added at concentrations of 1.0 to 5.0 mg/mL, while BAK was tested at 0.05, 0.075, and 0.1 mg/mL. To prepare the samples, varying amounts of stock solutions of the two preservatives were added to the formulations prepared in the PK study and the pH was adjusted to 4.5 with HCl as necessary. The resulting formulations were stored at 5° C. for 4 weeks. Physical stability was monitored by measuring the absorbance of the solution at 630 nm.

Data set [3] relates to epithelial tissue barrier (EpiAirway™ Tissue Model). The experiment in a line: In vitro permeation of Fluorescein-Exendin-4 across the cellular barrier. The conditions noted are these: for Fold increase in exenatide permeation over AKL-225-126-2: one hour incubation, full dose volume. From the text: A standard curve was generated over the relevant quantitation range. […] Initial studies focused on optimizing the concentrations of Me-β-CD, DDPC, EDTA and gelatin to enhance exenatide permeation across an epithelial tissue layer.

For another data set, the system named is aminopeptidases. The settings on record: cited from earlier work.
The conditions of data set [4]: aqueous solution at physiologic pH; cited from earlier work.
For data set [5] the following is noted: anesthetized rats, cited from earlier work.
Data set [6] relates to normal, human-derived tracheal/bronchial epithelial cells (EpiAirway™ Tissue Model). The experiment in a line: Transepithelial Electrical Resistance (TER) measurements using an in vitro nasal epithelial model. Type of data set: cell-based. The conditions noted are these: 60 minute exposure. The text has this: The cell line MatTek Corp. (Ashland, Mass.) was used as the source of normal, human-derived tracheal/bronchial epithelial cells (EpiAirway™ Tissue Model). The cells are highly differentiated and retain all the properties of respiratory epithelial tissue. The cells were provided as inserts grown to confluence on Millipore Milicell-CM filters comprised of transparent hydrophilic Teflon (PTFE). […] TER measurements were accomplished using the Endohm-12 Tissue Resistance Measurement Chamber connected to the EVOM Epithelial Voltohmmeter (World Precision Instruments, Sarasota, Fla.) with the electrode leads. The electrodes and a tissue culture blank insert were equilibrated for at least twenty (20) minutes in phosphate buffered solution with the power off prior to checking calibration. The background resistance was measured with 1.5 mL media in the Endohm tissue chamber and 300 μL media in a blank Millicell-CM insert. […] The background resistance of the blank insert was 5-12 ohms.
TER was measured before and after the sixty (60) minute incubation. […] After the 60 minute incubation with test samples, 200 μL of fresh media was gently added to the apical surface of each test sample insert and final TER was measured for each insert. […] Resistance is expressed as follows: (resistance measured−blank)×0.6 cm^2.

The mark [7] stands for this setting: 5° C. (refrigerated), at least two weeks, absorbance at 630 nm.

As for `CCCCCCCCCCCCCCCC(=O)OC(CC(=O)[O-])C[N+](C)(C)C` (racemic) [Palmitoyl-DL-carnitine, palmitoyl-DL-carnitine], the “Toxicity / cell viability (in words)” value in data set [1] was “toxic at high concentrations”. Also, in data set [2] (setting [7]), the “Physical stability / clarity (in words)” value was “physically instable without Me-β-CD”.

For `O=C(O)CN(CCN(CC(=O)O)CC(=O)O)CC(=O)O` [EDTA, ethylene diamine tetraacetic acid], the “Toxicity / cell viability (in words)” value in data set [1] is on record as “at 10 mg/mL EDTA, cell viability began to decrease”.

Consider `CCCCCCCCO[C@H]1O[C@H](CO)[C@@H](O)[C@H](O)[C@H]1O` [Octyl-α-glucopyranoside], for which the “Fold increase in exenatide permeation over AKL-225-126-2” value (shortened to “Fold increase in exenatide permeation”) in data set [3] is on record as “not more than 1.5 fold”.

For the compound `C[C@H](CCC(=O)NCC(=O)[O-])[C@H]1CC[C@H]2[C@@H]3[C@H](O)C[C@@H]4C[C@H](O)CC[C@]4(C)[C@H]3C[C@H](O)[C@]12C.[Na+]` [Sodium glycocholate, sodium glycocholate], in data set [2] (setting [7]), the “Physical stability / clarity (in words)” value was “physically instable at high concentrations”.

Turning to `CCCCCCCC/C=C\CCCCCCCC(=O)OCCOCC(OCCO)C1OCC(OCCO)C1OCCO` (stereo not drawn) [Tween-80], the “Exenatide permeation across the tissue barrier (in words)” value in data set [3] (human, 1 h) is on record as “failed to enhance exenatide permeation to the same extent as formulation AKL-225-126-2”.

Consider `CCCCCCCCCCCCC[N+](C)(C)Cc1ccccc1` [benzalkonium chloride (BAK), benzalkonium chloride], for which the “Toxicity / cell viability (in words)” value in data set [1] is “decreasing cell viability with increasing BAK concentration”. The “Physical stability / clarity (in words)” value in data set [2] was “remained physically stable for two weeks at 5 °C”.

On to `CC(C)CC(N)B(O)O` (stereo not drawn) [boro-leucine], for which, in the data set with aminopeptidases, the “Times more effective in enzyme inhibition than bestatin” value is recorded as “more than 100 times” and the “Times more effective in enzyme inhibition than puromycin” value is given as “more than 1000 times”.

For the compound `CCN(CC)/[N+]([O-])=N/O.CCNCC` [diethylamine/NO], the “Rate (time) of NO release” value in data set [4] was below 3 min.

`NCCN(CCN)/[N+]([O-])=N/O` [diethylenetriamine/NO]: in data set [4], the “Rate (time) of NO release” value is on record as “approximately 20 hours”.

`CCCCCCCCC(=O)OC[C@H](COP(=O)([O-])OCC[N+](C)(C)C)OC(=O)CCCCCCCC` [dinonanoyl glycero phosphatidylcholine, Di Nonanoyl Glycero Phosphatidylcholine (9:0)]: the “Physical stability / clarity (in words)” value in data set [2] (setting [7]) is reported as “becoming turbid in less than two weeks at refrigerated conditions”.

Take `CCCCCCCCO[C@@H]1O[C@H](CO)[C@H](O)[C@H](O)[C@H]1O` [galactopyranoside, n-Octyl-β-D-galactopyranoside]: the “Toxicity / cell viability (in words)” value in data set [1] is “toxic at 10 mg/mL”.

Take `CCCCCCCCO[C@@H]1O[C@H](CO)[C@@H](O[C@H]2O[C@H](CO)[C@@H](O)[C@H](O)[C@H]2O)[C@H](O)[C@H]1O` [n-octyl-β-D-maltopyranoside, n-Octyl-β-D-maltopyranoside]: in data set [3], the “Fold increase in exenatide permeation” value is recorded as “not more than 1.5 fold”.

Regarding `CCCCCCCC/C=C\CCCCCCCC(=O)O` [oleic acid], the “Toxicity / cell viability (in words)” value in data set [1] is listed as 3 mg/mL oleic acid resulted in lowered cell viability.

Turning to `O=C([O-])c1ccccc1.[Na+]` [sodium benzoate], the “Physical stability / clarity (in words)” value in data set [2] (setting [7]) was 2 mg/mL of more sodium benzoate became turbid within 14 days at 5 °C.

As for `CCCCCCCCCC(=O)[O-].[Na+]` [sodium caprate], the “Toxicity / cell viability (in words)” value in data set [1] is “low cell viability at 50 mM alone”. In data set [2] (setting [7]), the “Physical stability / clarity (in words)” value was “physical instability in the absence of Me-β-CD”.

For `CCCCCCCC(=O)[O-].[Na+]` [sodium caprylate], the “Toxicity / cell viability (in words)” value in data set [1] was “toxic at 20 mM with Me-β-CD and EDTA”. Further, in data set [2] (setting [7]), the “Physical stability / clarity (in words)” value was “physical instability in the absence of Me-β-CD”.

For the compound `OC[C@H]1O[C@@H]2O[C@H]3[C@H](O)[C@@H](O)[C@@H](O[C@H]4[C@H](O)[C@@H](O)[C@@H](O[C@H]5[C@H](O)[C@@H](O)[C@@H](O[C@H]6[C@H](O)[C@@H](O)[C@@H](O[C@H]7[C@H](O)[C@@H](O)[C@@H](O[C@H]8[C@H](O)[C@@H](O)[C@@H](O[C@H]1[C@H](O)[C@H]2O)O[C@@H]8CO)O[C@@H]7CO)O[C@@H]6CO)O[C@@H]5CO)O[C@@H]4CO)O[C@@H]3CO` [β-cyclodextrin], the “Physical stability / clarity (in words)” value in data set [2] (setting [7]) is given as “became turbid at refrigerated conditions”.

As to Dodecanoylsucrose, the “Toxicity / cell viability (in words)” value in data set [1] is reported as “toxic at 10 mg/mL”. Moreover, the “Fold increase in exenatide permeation” value in data set [3] is recorded as “not more than 1.5 fold”.

Regarding dimethyl-β-cyclodextrin [DMe-β-CD], in data set [1], the “Toxicity / cell viability (in words)” value was “more toxic to the cells than Me-β-CD”. In data set [3], the “Fold increase in exenatide permeation” value turned out to be 1.5 fold.

“human growth hormone: human growth hormone given nasally to anesthetized rats, without and with N-acetyl-L-cysteine”: the “Nasal bioavailability of human growth hormone” value in data set [5] (with N-acetyl-L-cysteine (ACS)) is 12.2%; in data set [5] (without N-acetyl-L-cysteine), 7.5%.

Take hydroxypropyl-β-cyclodextrin [HP-β-CD]: the “Exenatide permeation across the tissue barrier (in words)” value in data set [3] (excipient screen, compared with AKL-225-126-2 or control without enhancers) is listed as “did not increase permeation significantly”.

Consider triton X, for which the “Effect on TER (in words)” value in data set [6] is given as “lowest possible TER”.
